Laboratory results from US7968526B2, “Antisense oligonucleotides directed to ribonucleotide reductase R2 and uses thereof in the treatment of cancer” (Lorus Therapeutics Inc., priority 2003, dated 2011).

System: R3 mouse fibrosarcoma cells
Assay: R3 mouse fibrosarcoma tumour growth in C3H mice
Type: in vivo
Protocol: Treatments lasted for 14 days thereafter. Anti-tumour activities were estimated by the inhibition of tumour volume, which was measured with a calliper at two-day intervals starting from day 9. Each point in FIG. 27A represents the mean tumour volume calculated from 6-7 animals per experimental group. […] SEQ ID NO:1 had significant anti-tumour activity compared to saline (P=0.0006), scrambled (P=0.0001) and mismatched (0.0002) controls.
At the end of the treatments, the animals were sacrificed, tumours were excised and their weights were measured. Each bar in FIG. 27C represents mean tumour weight and standard error calculated from 6-8 animals per experimental group. P values compared to saline were as follows: 0.5 mg/kg (P=0.04), 2 mg/kg (P=0.0001), 5 mg/kg (P=0.0015), 10 mg/kg (P=0.0001), 30 mg/kg (P=0.0001).

Substance: 5′-GGCTAAATCGCTCCACCAAG-3′ (all phosphorothioate, sugars by position and methylation of C not given here) [SEQ ID NO: 1, fully phosphorothioated antisense oligonucleotide that hybridizes to the coding region of R2 mRNA]
- Inhibition of tumour weight (Mouse Fibrosarcoma): ~80%
- Dose dependence of tumour weight (Mouse Fibrosarcoma in C3H mice at doses of 0.5 to 30 mg/kg): Dose-dependent decrease in tumour weight in
- Inhibition of tumour volume (Mouse Fibrosarcoma in C3H mice, Day 15 after tumour implantation): approximately 80% on Day 15 after tumour laimpntation
- Anti-tumour efficacy (tumour volume, FIG. 27A) (R3, C3H mice, 5 mg/kg i.v. every other day, 14 days): significant anti-tumour efficacy compared to saline, scrambled and mismatched controls
- Dose dependence of anti-tumour activity (FIG. 27C) (R3, C3H mice, 0.5-30 mg/kg): dose-dependent anti-tumour activity
